Laboratory results taken from PubChem BioAssay AID248 (DTP/NCI, 2004).
Toxic doses and inconclusive results are not listed. Rule as the data show it: active = T/C of 150% or more; inactive = T/C below 125%.

System: L1210 leukemia ip in BDF1 mice, survival T/C
Test: NCI In Vivo Anticancer Drug Screen. Data for tumor model L1210 Leukemia (intraperitoneal) in B6D2F1 (BDF1) mice
Settings: endpoint: mean survival time, higher = longer survival
Summary of the method: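 Transplanted-tumor mice were given test agent; controls received vehicle only. Survival readings from the two groups were divided (treated over control).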

[1] = dose: 100.0 mg/kg/injection, schedule: Q04DX003 (ip), vehicle: saline with Tween-80
[2] = dose: 200.0 mg/kg/injection, schedule: Q04DX003 (ip), vehicle: saline with Tween-80
[3] = dose: 400.0 mg/kg/injection, schedule: Q04DX003 (ip), vehicle: saline with Tween-80

Measured: T/C

O=C1CCC(=O)N1SC(Cl)(Cl)Cl
inactive: dose: 7.5 mg/kg/injection, schedule: Q01DX009 (ip), vehicle: saline 101 % of control | dose: 15.0 mg/kg/injection, schedule: Q01DX009 (ip), vehicle: saline 101 % of control | dose: 30.0 mg/kg/injection, schedule: Q01DX009 (ip), vehicle: saline 106 % of control | dose: 45.0 mg/kg/injection, schedule: Q01DX009 (ip), vehicle: saline 99 % of control | dose: 70.0 mg/kg/injection, schedule: Q01DX009 (ip), vehicle: saline 92 % of control | dose: 100.0 mg/kg/injection, schedule: Q01DX001 (ip), vehicle: other 103 % of control | dose: 100.0 mg/kg/injection, schedule: Q04DX002 (ip), vehicle: saline with Tween-80 87 % of control | dose: 105.0 mg/kg/injection, schedule: Q01DX009 (ip), vehicle: saline 89 % of control | dose: 200.0 mg/kg/injection, schedule: Q01DX001 (ip), vehicle: other 95 % of control | dose: 240.0 mg/kg/injection, schedule: Q01DX009 (ip), vehicle: saline 88 % of control | dose: 300.0 mg/kg/injection, schedule: Q01DX001 (ip), vehicle: other 98 % of control | dose: 360.0 mg/kg/injection, schedule: Q01DX009 (ip), vehicle: saline 86 % of control

COC1OC(CN2C(=O)c3ccccc3C2=O)C2OC(C)(C)OC12 (configuration not stated)
inactive: [1] 106 % of control | [2] 97 % of control | [3] 96 % of control

C=CCOC(=O)Nc1cccc(OC(=O)NC)c1
inactive: [1] 105 % of control | [2] 105 % of control | [3] 100 % of control

Cc1ccc(C(O)(c2ccccc2)c2ccccc2C(=O)Nc2ccccc2)cc1 (configuration not stated)
inactive: dose: 100.0 mg/kg/injection, schedule: Q01DX009 (ip), vehicle: saline with Tween-80 95 % of control | dose: 200.0 mg/kg/injection, schedule: Q01DX009 (ip), vehicle: saline with Tween-80 90 % of control | dose: 400.0 mg/kg/injection, schedule: Q01DX009 (ip), vehicle: saline with Tween-80 92 % of control

CCOC(=O)C(CC1CCCCC1)(NC(C)=O)C(=O)OCC
inactive: dose: 75.0 mg/kg/injection, schedule: Q04DX003 (ip), vehicle: saline 96 % of control | dose: 150.0 mg/kg/injection, schedule: Q04DX003 (ip), vehicle: saline 104 % of control | dose: 300.0 mg/kg/injection, schedule: Q04DX003 (ip), vehicle: saline 100 % of control

CCCCCC(C)O[Si](C)Cc1ccccc1 (configuration not stated)
inactive: [1] 95 % of control | [2] 97 % of control | [3] 90 % of control
